Earlier results, collected in patent publication US20090182054A1, “Topical compositions containing solubilized dicarboxylic acids” (priority 2008, published 2009).

Legend:
[1] = water, 25 deg C
[2] = tested on: inflammatory papule lesions and erythema; settings: topical application

solubility [1]: 0.24 gram per 100 gram of water
SMILES: O=C(O)CCCCCCCC(=O)O [azelaic acid, Azelaic acid]
inflammatory papule lesions and erythema [2]: significantly reduce
